Experimental data: US6511995B1, “Pyridine derivative and pharmaceutical containing the same” (Otsuka Pharmaceutical Co., Ltd., priority 1998, dated 2003)

Test system: Human Ito cells (LI90)
Assay: Test for inhibition of collagen synthesis (3H proline labeling, hTGF β-1 treated cells)
Type: cell-based
Conditions: cultured with test compound in MEM containing 10 PM hTGF β-1 and 2% PDS for 16 hours, 3H proline labeling 24 hours, read-out: IC50 (μM), concentration at which the collagen synthesis is inhibited by 50% (T/C = 0.5)
Description: The pyridine derivatives (test compounds) obtained in Examples 1-2, 9-10, 21, 25, 29, 33-37, 39, 42, 44 and 46 were subjected to the following collagen synthesis test.
Test for Inhibition of Collagen Synthesis
Plasma obtained by centrifugation of rabbit blood was centrifuged again to remove platelets, and dialysis of the resulting supernatant was carried out against a Phosphate Buffered Saline (PBS) containing 0.01% (w/v) calcium chloride and 0.01% (w/v) magnesium chloride. Then, centrifugation was carried out to remove the residue and the resulting supernatant was immobilized at 56° C. for 30 minutes. The immobilized supernatant was sterilized by using a filter (0.22 μm) to prepare Plasma Derived Serum (PDS).
Human Ito cells (LI90) were plated in DULBECCO's modified eagle medium (DMEM) containing 10% fetal bovine serum and cultured in an incubator in the presence of 5% carbon dioxide (CO2) for 24 hours at 37° C., and then washed with PBS and cultured in Eagle's minimum essential medium (MEM) containing 2% PDS for additional 3 days. The cultured cells were washed with PBS and cultured together with the test compounds in MEM containing 10 PM hTGF (transforming growth factor) β-1 (containing 2% PDS based on the total amount of MEM) for 16 hours. Then, the cultured L190 was washed with PBS and RI (radioisotope) labeling was carried out in MEM containing ^3H proline as a radioactive labeled compound and 0.25 mM ascorbic acid for 24 hours. This cultured supernatant was precipitated by using trichloroacetic acid (TCA), and then the radioactivity in an […] fraction was measured and the resulting measured value was taken as collagen synthesis activity.
By comparing the radioactivity in the cultured supernatant containing the test compound with the radioactivity in the cultured supernatant containing no test compound (control), the collagen synthesis inhibition activity (T/C) was calculated by the following equation:
T/C=(radioactivity in cultured supernatant containing test compound)/(radioactivity in cultured supernatant of control).
IC50 was determined as the concentration (μM) at which the collagen systhesis can be inhibited by 50% (concentration of the test compound wherein C50=T/C corresponds to 0.5).

| Structure (SMILES) | IC50 |
| --- | --- |
| O=C(Nc1ccc(Oc2cccc3c2CCC3=O)nc1)c1ccc(C(F)(F)F)cc1 [Example 2, N1-{6-[(1-oxo-2,3-dihydro-1H-inden-4-yl)oxy]-3-pyridinyl}-4-(trifluoromethyl)benzamide] | 2.9 µM |
| O=C(Nc1ccc(Oc2cccc3c2CCCC3=O)nc1)c1ccc(Cl)c(Cl)c1 [Example 9, 3,4-dichloro-N1-{6-[(5-oxo-5,6,7,8-tetrahydro-1-naphthalenyl)oxy]-3-pyridinyl}benzamide] | 2.34 µM |
| O=C(Nc1ccc(Oc2ccc3c(c2)C(=O)CCCC3)nc1)c1ccc(Cl)c(Cl)c1 [Example 10] | 2.6 µM |
| CC(=O)c1ccc(Oc2ccc(NC(=O)c3ccc(Cl)c(Cl)c3)cn2)cc1C [Example 21, N1-[6-(4-acetyl-3-methylphenoxy)-3-pyridinyl]-3,4-dichlorobenzamide] | 2.92 µM |
| O=C(Nc1ccc(Oc2cccc3c2CCC3)nc1)c1ccc(Cl)c(Cl)c1 [Example 25, 3,4-dichloro-N1-(6-[(2,3-dihydro-1H-inden-4-yl)oxy]-3-pyridinyl}benzamide] | 2.7 µM |
| CC1(c2ccc(Oc3ccc(NC(=O)c4ccc(Cl)c(Cl)c4)cn3)cc2)OCCO1 [Example 33, 3,4-dichloro-N1-{6-[4-(2-methyl-1,3-dioxolane-2-yl)phenoxy]-3-pyridinyl}benzamide] | 3.88 µM |
| O=C(Nc1ccc(Oc2cccc3c2CC=C3)nc1)c1ccc(Cl)c(Cl)c1 [Example 35, 3,4-dichloro-N1-{6-[(1H-inden-7-yl)oxy]-3-pyridinyl}benzamide] | 2.43 µM |
| CC(O)c1ccc(Oc2ccc(NC(=O)c3ccc(Cl)c(Cl)c3)cn2)cc1 (stereo not shown) [Example 36, 3,4-dichloro-N1-{6-[4-(1-hydroxyethyl)phenoxy]-3-pyridinyl}benzamide] | 3.72 µM |
| O=C(Nc1ccc(Cl)c(Cl)c1)c1ccc(Oc2cccc3c2CCC3=O)nc1 [Example 37, N3-(3,4-dichlorophenyl)-6-[(1-oxo-2,3-dihydro-1H-inden-4-yl)oxy]nicotinamide] | 2.52 µM |
| O=C(Nc1ccc(Cl)c(Cl)c1)c1ccc(Oc2cccc3c2CCCC3=O)nc1 [Example 42, N3-(3,4-dichlorophenyl)-6-[(5-oxo-5,6,7,8-tetrahydro-1-naphthalenyl)oxy]nicotinamide] | 2.29 µM |
| CC(=O)OC1=CCc2c(Oc3ccc(NC(=O)c4ccc(Cl)c(Cl)c4)cn3)cccc21 [Example 46, N1-{6-[(3-acetoxy-1H-inden-7-yl)oxy]-3-pyridinyl}-3,4-dichlorobenzamide] | 1.12 µM |

The remaining lines, values ahead:

| IC50 | Structure (SMILES) |
| --- | --- |
| 2.14 µM | O=C(Nc1ccc(Oc2cccc3c2CCC3=O)nc1)c1ccc(Cl)c(Cl)c1 [Example 1, 3,4-dichloro-N1-{6-[(1-oxo-2,3-dihydro-1H-inden-4-yl)oxy]-3-pyridinyl}benzamide] |
| 1.58 µM | Cc1cccc(Oc2ccc(NC(=O)c3ccc(Cl)c(Cl)c3)cn2)c1C [Example 29, 3,4-dichloro-N1-[6-(2,3-dimethylphenoxy)-3-pyridinyl]benzamide] |
| 2.15 µM | O=C(Nc1ccc(Oc2cccc3c2CCC3O)nc1)c1ccc(Cl)c(Cl)c1 (stereo not shown) [Example 34, 3,4-dichloro-N1-{6-[(1-hydroxy-2,3-dihydro-1H-inden-4-yl)oxy]-3-pyridinyl}benzamide] |
| 0.55 µM | O=C(Nc1ccc(C(F)(F)F)cc1)c1ccc(Oc2cccc3c2CCC3=O)nc1 [Example 39, 6-[(1-oxo-2,3-dihydro-1H-inden-4-yl)oxy]-N3-[4-(trifluoromethyl)phenyl]nicotinamide] |
| 0.92 µM | CC(=O)c1ccc(Oc2ccc(C(=O)Nc3ccc(C(F)(F)F)cc3)cn2)cc1 [Example 44, 6-(4-acetylphenoxy)-N3-[4-(trifluoromethyl)phenyl]nicotinamide] |
